Test results from patent US20260232763A1 (Kadmon Corporation, LLC, priority 2023, published 2026).
Where a name gives a salt, the structure may show the parent alone. Marks after values point to notes of the source that are not given here. Blank lines part the entries; values can stand above or below the compound they belong to.

How the values were obtained:
[1] = cited from earlier work
[2] = Example 3 Part 1 (Regimen A) raltegravir + belumosudil plasma PK
Method: (§1) On Day 10, the victim and perpetrator IMPs were administered simultaneously.
(§2) On the evening before each dose, participants were provided with a light snack and were required to fast from all food and drink (except water) for a minimum of 10 hours until the following morning. All study interventions were administered in the fed state, following completion of a standard breakfast (with dosing planned to occur 30 minutes after the start of the breakfast).
(§3) The PK parameters underwent a natural logarithmic transformation and were analyzed using a mixed effect modelling technique. Adjusted geometric mean ratios and 90% confidence intervals (CIs) of the ratios were obtained for each comparison. The ratio was defined as test/reference. In addition, the intraparticipant variability were also presented. […] No formal interim analyses were performed for this study.

ROCK2 = ROCK2 (Homo sapiens, UniProt O75116); experiment: ROCK2 inhibition; type: biochemical
ROCK2, sequence (O75116 whole entry): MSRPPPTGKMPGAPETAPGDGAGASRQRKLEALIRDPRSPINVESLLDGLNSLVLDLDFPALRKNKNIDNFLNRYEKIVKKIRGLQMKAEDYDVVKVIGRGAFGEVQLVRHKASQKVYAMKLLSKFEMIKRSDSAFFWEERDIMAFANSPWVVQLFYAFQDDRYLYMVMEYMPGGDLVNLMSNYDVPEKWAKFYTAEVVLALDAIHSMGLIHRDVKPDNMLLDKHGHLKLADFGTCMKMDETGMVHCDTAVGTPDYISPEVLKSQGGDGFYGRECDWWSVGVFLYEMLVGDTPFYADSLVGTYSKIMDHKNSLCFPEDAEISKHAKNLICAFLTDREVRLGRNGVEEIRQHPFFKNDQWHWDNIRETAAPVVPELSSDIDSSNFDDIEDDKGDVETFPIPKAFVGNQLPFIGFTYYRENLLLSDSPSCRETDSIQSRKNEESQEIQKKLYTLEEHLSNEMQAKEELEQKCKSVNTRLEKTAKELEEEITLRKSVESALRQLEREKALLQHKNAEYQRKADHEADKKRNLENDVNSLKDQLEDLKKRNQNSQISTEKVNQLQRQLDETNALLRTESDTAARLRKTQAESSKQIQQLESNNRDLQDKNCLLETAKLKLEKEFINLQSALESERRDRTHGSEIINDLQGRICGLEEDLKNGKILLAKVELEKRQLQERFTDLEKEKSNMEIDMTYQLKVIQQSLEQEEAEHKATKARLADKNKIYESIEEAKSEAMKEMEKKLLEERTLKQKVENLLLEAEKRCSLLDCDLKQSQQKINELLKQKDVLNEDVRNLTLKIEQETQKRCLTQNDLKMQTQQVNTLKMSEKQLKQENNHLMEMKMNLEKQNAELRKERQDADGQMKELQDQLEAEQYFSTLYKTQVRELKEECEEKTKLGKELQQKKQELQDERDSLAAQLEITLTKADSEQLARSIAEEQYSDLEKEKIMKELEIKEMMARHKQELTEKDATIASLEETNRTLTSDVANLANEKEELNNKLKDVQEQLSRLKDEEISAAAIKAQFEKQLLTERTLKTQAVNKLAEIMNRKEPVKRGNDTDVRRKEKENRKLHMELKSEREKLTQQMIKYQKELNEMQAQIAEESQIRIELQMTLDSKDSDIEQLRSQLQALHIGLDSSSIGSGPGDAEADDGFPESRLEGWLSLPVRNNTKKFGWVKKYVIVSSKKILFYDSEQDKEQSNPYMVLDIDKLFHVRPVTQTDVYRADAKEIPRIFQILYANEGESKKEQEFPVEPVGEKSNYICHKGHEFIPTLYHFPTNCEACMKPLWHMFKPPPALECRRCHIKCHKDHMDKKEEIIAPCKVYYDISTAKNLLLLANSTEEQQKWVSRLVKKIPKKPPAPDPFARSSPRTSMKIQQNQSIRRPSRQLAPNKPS

[3] = metabolite exposure in clinical trials of the belumosudil development program; type: in vivo, human
[4] = Example 3 Part 2 (Regimen B) dabigatran etexilate + belumosudil plasma PK; type: in vivo, human
Method: The ratio was defined as test/reference. In addition, the intraparticipant variability were also presented. […] No formal interim analyses were performed for this study.

clinical = settings: human, in vivo
Method: as §1, §2, §3

[5] = Raltegravir + belumosudil (Day 7), belumosudil 200 mg QD
[6] = Raltegravir alone (Day 1), 400 mg single dose
[7] = Regimen A, raltegravir 400 mg single dose + belumosudil 200 mg QD (Day 7)
[8] = Regimen A, raltegravir 400 mg single dose alone (Day 1)
[9] = raltegravir + belumosudil vs raltegravir alone
[10] = Dabigatran etexilate + belumosudil (Day 9), belumosudil 200 mg QD
[11] = Dabigatran etexilate alone (Day 1), 75 mg single dose
[12] = Regimen B, dabigatran etexilate 75 mg single dose + belumosudil 200 mg QD (Day 9)
[13] = dabigatran etexilate + belumosudil vs alone
[14] = dosed with belumosudil compared to dosing alone

SMILES: CC(C)NC(=O)COc1cccc(-c2nc(Nc3ccc4[nH]ncc4c3)c3ccccc3n2)c1 [Belumosudil mesylate, 2-{3-[4-(1H-indazol-5-ylamino)-2-quinazolinyl]phenoxy}-N-(propan-2-yl) acetamide methanesulfonate (1:1)]
solubility in DMF ([1]; DMF): slightly soluble
solubility in DMSO ([1]; DMSO): soluble
solubility in methanol ([1]; methanol): slightly soluble
solubility in water ([1]; water): practically insoluble

SMILES: Cc1nnc(C(=O)NC(C)(C)c2nc(C(=O)NCc3ccc(F)cc3)c(O)c(=O)n2C)o1 [raltegravir, reference compound]
Tmax, median [2, 5]: 3.000 h
Tmax, median [2, 6]: 3.000 h
AUC(0-inf) ([2]; male, human, in vivo, 400 mg): 1510 ng·h/mL
Cmax, adj geo mean ([2]; male, human, in vivo, 400 mg): 512 ng/mL
Cmax, geometric mean ([2]; male, human, in vivo, 400 mg): 520 ng/mL
T1/2, geometric mean ([2]; male, human, in vivo, 400 mg): 1.434 h
half-life ([2]; male, human, in vivo, 400 mg): ~1.4 h
AUC(0-t) ([2]; male, human, in vivo, 400 mg, AUC(0-24), geometric mean): 1970 ng·h/mL
AUC(0-t) ([2]; male, human, in vivo, 400 mg, AUC(0-last), adj geo mean): 1570 ng·h/mL
AUC(0-t) ([2]; male, human, in vivo, 400 mg, AUC(0-last), geometric mean): 1640 ng·h/mL

SMILES: Cc1nnc(C(=O)NC(C)(C)c2nc(C(=O)NCc3ccc(F)cc3)c(O[C@@H]3O[C@H](C(=O)O)[C@@H](O)[C@H](O)[C@H]3O)c(=O)n2C)o1 [raltegravir glucuronide]
peak and overall exposure levels when raltegravir was dosed with belumosudil compared to dosing alone ([2]; Part 1): notable decrease
MPR Cmax (metabolite to parent ratio) ([2]; Raltegravir + belumosudil (Day 7)): 0.299
AUC(0-24), geometric mean [2, 5]: 1090 ng·h/mL
AUC(0-inf), geometric mean [2, 5]: 1170 ng·h/mL
AUC(0-last), geometric mean [2, 5]: 859 ng·h/mL
Cmax, geometric mean [2, 5]: 207 ng/mL
T1/2, geometric mean [2, 5]: approximately 3.9 h
Tmax, median [2, 5]: 4.000 h
T1/2, geometric mean ([2]; Raltegravir + belumosudil (Day 7), belumosudil 200 mg QD, listed as Raltegravir glucuronide): 3.919 h
MPR Cmax (metabolite to parent ratio) ([2]; Raltegravir alone (Day 1)): 0.506
AUC(0-24), geometric mean [2, 6]: 1710 ng·h/mL
AUC(0-inf), geometric mean [2, 6]: 1290 ng·h/mL
AUC(0-last), geometric mean [2, 6]: 1420 ng·h/mL
Cmax, geometric mean [2, 6]: 359 ng/mL
T1/2, geometric mean [2, 6]: ~1.5 h
Tmax, median [2, 6]: 4.000 h
T1/2, geometric mean ([2]; Raltegravir alone (Day 1), 400 mg single dose, listed as Raltegravir glucuronide): 1.541 h
AUC(0-last), adj geo mean [2, 7]: 859 ng·h/mL
Cmax, adj geo mean [2, 7]: 207 ng/mL
AUC(0-last), adj geo mean [2, 8]: 1420 ng·h/mL
Cmax, adj geo mean [2, 8]: 359 ng/mL
AUC(0-last), ratio of adj geo means (test/reference) [2, 9]: 60.38%
Cmax, ratio of adj geo means (test/reference) [2, 9]: 57.58%

ROCK2 activity of metabolite (ROCK2): ROCK2 active
exposure of metabolite relative to the parent [3]: < 5%
geometric mean T1/2 ([2]; human, in vivo): 1.6 to 2 h
median Tmax ([2]; human, in vivo): 1.5 to 3 h
AUC(0-last), geometric mean ([2]; human, in vivo, 200 mg): 47.6 ng·h/mL
AUC(0-tau), geometric mean ([2]; human, in vivo, 200 mg): 96.6 ng·h/mL
Cmax, geometric mean ([2]; human, in vivo, 200 mg): 21.4 ng/mL
T1/2, geometric mean ([2]; human, in vivo, 200 mg): 1.621 h
Tmax, median ([2]; human, in vivo, 200 mg): 2.00 h
T1/2, individual participant value(s) ([4]; human, in vivo): 1.878^b h
median Tmax ([4]; human, in vivo): 1.5 to 2 h
AUC(0-last), geometric mean ([4]; human, in vivo, 200 mg): 35.3 ng·h/mL
Cmax, geometric mean ([4]; human, in vivo, 200 mg): 19.5 ng/mL
Tmax, median ([4]; human, in vivo, 200 mg): 1.750 h
median Tmax (clinical): 1.5 to 2 h
AUC(0-last), geometric mean (clinical; 200 mg): 32.0 ng·h/mL
Cmax, geometric mean (clinical; 200 mg): 17.1 ng/mL
Tmax, median (clinical; 200 mg): 1.500 h
SMILES: NC(=O)COc1cccc(-c2nc(Nc3ccc4[nH]ncc4c3)c3ccccc3n2)c1 [KD025m1]

ROCK2 activity of metabolite (ROCK2): ROCK2 inactive
increase of exposures (Cmax and AUC) following multiple dosing ([2]; human, in vivo): 1.30-1.49 fold
median Tmax ([2]; human, in vivo): 1.5 to 3 h
AUC(0-last), geometric mean ([2]; human, in vivo, 200 mg): 879 ng·h/mL
AUC(0-tau), geometric mean ([2]; human, in vivo, 200 mg): 961 ng·h/mL
Cmax, geometric mean ([2]; human, in vivo, 200 mg): 278 ng/mL
Tmax, median ([2]; human, in vivo, 200 mg): 2.00 h
increase of exposures (Cmax and AUC) following multiple dosing ([4]; human, in vivo): 1.27-1.42 fold
median Tmax ([4]; human, in vivo): 1.5 to 2 h
AUC(0-last), geometric mean ([4]; human, in vivo, 200 mg): 692 ng·h/mL
AUC(0-tau), geometric mean ([4]; human, in vivo, 200 mg): 746 ng·h/mL
Cmax, geometric mean ([4]; human, in vivo, 200 mg): 184 ng/mL
Tmax, median ([4]; human, in vivo, 200 mg): 2.000 h
increase of exposures (Cmax and AUC) following multiple dosing (clinical): 1.21-1.57 fold
median Tmax (clinical): 1.5 to 2 h
AUC(0-last), geometric mean (clinical; 200 mg): 557 ng·h/mL
AUC(0-tau), geometric mean (clinical; 200 mg): 598 ng·h/mL
Cmax, geometric mean (clinical; 200 mg): 215 ng/mL
Tmax, median (clinical; 200 mg): 2.000 h
SMILES: O=C(O)COc1cccc(-c2nc(Nc3ccc4[nH]ncc4c3)c3ccccc3n2)c1 [KD025m2]

increase of overall exposure level (clinical; male): 4.62 fold
increase of peak exposure level (clinical; male): 3.59 fold
AUC(0-inf) (clinical; male, 10 mg): 25.4 ng·h/mL
AUC(0-last), geometric mean (clinical; male, 10 mg): 13.6 ng·h/mL
AUC(0-t) (clinical; male, 10 mg): 13.6 ng·h/mL
Cmax, adj geo mean (clinical; male, 10 mg): 2.96 ng/mL
Cmax, geometric mean (clinical; male, 10 mg): 2.96 ng/mL
SMILES: CC(C)c1nc(N(C)S(C)(=O)=O)nc(-c2ccc(F)cc2)c1/C=C/[C@@H](O)C[C@@H](O)CC(=O)O [rosuvastatin, reference compound]

AUC(0-last), geometric mean [4, 10]: 682 ng·h/mL
Cmax, geometric mean [4, 10]: 99.5 ng/mL
T1/2, geometric mean [4, 10]: 8.293 h
Tmax, median [4, 10]: 2.000 h
AUC(0-last), geometric mean [4, 11]: 317 ng·h/mL
Cmax, geometric mean [4, 11]: 42.1 ng/mL
T1/2, geometric mean [4, 11]: 8.128 h
Tmax, median [4, 11]: 3.000 h
AUC(0-last), adj geo mean [4, 12]: 682 ng·h/mL
Cmax, adj geo mean [4, 12]: 99.5 ng/mL
Cmax, adj geo mean ([4]; Regimen B, dabigatran etexilate 75 mg single dose alone (Day 1)): 42.1 ng/mL
increase of exposure ([4]; coadministration of belumosudil): 2 fold
AUC(0-inf), ratio of adj geo means (test/reference) [4, 13]: 206.47%
AUC(0-last), ratio of adj geo means (test/reference) [4, 13]: 215.41%
Cmax, ratio of adj geo means (test/reference) [4, 13]: 236.06%
increase of overall exposure level [4, 14]: 2.06 fold
increase of peak exposure level [4, 14]: 2.36 fold
AUC(0-inf) ([4]; male, human, plasma, oral, 75 mg, Dabigatran etexilate alone (Day 1), 75 mg single dose, read-out: AUC(0-inf), geometric mean): 371 ng·h/mL
AUC(0-inf) ([4]; male, human, plasma, oral, 75 mg, Regimen B, dabigatran etexilate 75 mg single dose alone (Day 1), read-out: AUC(0-inf), adj geo mean): 398 ng·h/mL
AUC(0-inf) ([4]; male, human, plasma, oral, Dabigatran etexilate + belumosudil (Day 9), belumosudil 200 mg QD, read-out: AUC(0-inf), geometric mean): 801 ng·h/mL
AUC(0-inf) ([4]; male, human, plasma, oral, Regimen B, dabigatran etexilate 75 mg single dose + belumosudil 200 mg QD (Day 9), read-out: AUC(0-inf), adj geo mean): 822 ng·h/mL
AUC(0-t) ([4]; male, human, plasma, oral, Regimen B, dabigatran etexilate 75 mg single dose alone (Day 1), read-out: AUC(0-last), adj geo mean): 317 ng·h/mL
SMILES: [H]/N=C(/N)c1ccc(NCc2nc3cc(C(=O)N(CCC(=O)O)c4ccccn4)ccc3n2C)cc1 [unconjugated dabigatran, dabigatran, reference compound]
